Reference: patent US20260200942A1, “PARP7 INHIBITORS AND THEIR APPLICATIONS” (CHONGQING PHARSCIN INNOBIO CO., LTD., priority 2023, published 2026)

Molecular target: T1, PARP7 (Homo sapiens, UniProt Q7Z3E1)
T1 construct: purchased BPS 80527
T1 sequence (Q7Z3E1 1-657): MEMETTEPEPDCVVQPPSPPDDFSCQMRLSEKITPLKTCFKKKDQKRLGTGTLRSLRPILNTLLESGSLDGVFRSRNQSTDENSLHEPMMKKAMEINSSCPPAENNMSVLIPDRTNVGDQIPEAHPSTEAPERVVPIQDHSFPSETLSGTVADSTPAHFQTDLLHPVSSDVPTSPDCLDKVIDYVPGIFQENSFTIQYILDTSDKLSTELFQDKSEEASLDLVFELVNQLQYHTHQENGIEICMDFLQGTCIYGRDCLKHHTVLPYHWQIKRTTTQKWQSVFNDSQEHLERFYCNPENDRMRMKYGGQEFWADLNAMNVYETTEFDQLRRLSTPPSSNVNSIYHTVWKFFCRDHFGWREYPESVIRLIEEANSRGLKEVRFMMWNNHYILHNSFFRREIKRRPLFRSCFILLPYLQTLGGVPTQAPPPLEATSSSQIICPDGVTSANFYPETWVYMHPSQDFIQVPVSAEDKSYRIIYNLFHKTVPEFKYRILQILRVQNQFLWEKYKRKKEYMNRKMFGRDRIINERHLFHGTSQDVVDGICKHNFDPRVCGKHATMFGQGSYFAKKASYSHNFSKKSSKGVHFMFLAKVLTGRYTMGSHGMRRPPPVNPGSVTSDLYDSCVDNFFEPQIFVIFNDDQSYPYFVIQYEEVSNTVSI
Test: PARP7 inhibitory activity assay (histone-coated 384-well plate, chemiluminescence)
Type: biochemical
Description: Inhibition rate (%) calculation formula: […]

Row | Structure (SMILES) | IC50 [nM]
1 | O=C([C@@H]1CCN(Cc2c[nH]c(=O)c(C(F)(F)F)c2)C1)N1CCN(c2ncc(C(F)(F)F)cn2)CC1 [Embodiment 24] | 10 to 100
2 | O=c1cc(OC2CCC2)c(CN[C@H]2C[C@H](C(=O)N3CCN(c4ncc(C(F)(F)F)cn4)CC3)C2)n[nH]1 [Embodiment 52] | 10 to 100
3 | O=c1[nH]nc(CN[C@H]2C[C@@H](C(=O)N3CCN(c4ncc(C(F)(F)F)cn4)CC3)C2)cc1C(F)(F)F [Embodiment 20] | 100 to 1000
4 | O=C(C1CN(Cc2cc(C(F)(F)F)c(=O)[nH]n2)C1)N1CCN2c3ncc(C(F)(F)F)cc3OCC[C@@H]2C1 [Embodiment 37] | 10 to 100
5 | C[C@H]1CN(C(=O)[C@@H]2CCN(Cc3cc(C(F)(F)F)c(=O)[nH]n3)C2)CCN1c1ncc(C(F)(F)F)cn1 [Embodiment 30] | 10 to 100
6 | O=C(C1CN(Cc2n[nH]c(=O)cc2C(F)(F)F)C1)N1CCN(c2ncc(C(F)(F)F)cn2)CC1 [Embodiment 54, 5-(trifluoromethyl)-6-((3-(4-(5-(trifluoromethyl)pyrimidin-2-yl)piperazine-1-carbonyl)azetidin-1-yl)methyl)pyridazin-3(2H)-one] | 100 to 1000
7 | O=c1[nH]nc(CN[C@H]2C[C@H](C(=O)N3CCN4c5ncc(C(F)(F)F)cc5COC[C@@H]4C3)C2)cc1C(F)(F)F [Embodiment 43] | 10 to 100
8 | N#Cc1cc(C(F)(F)F)cnc1N1CCN(C(=O)C2CC(NCc3cc(C(F)(F)F)c(=O)[nH]n3)C2)CC1 [Embodiment 50, 2-(4-((1R,3R)-3-(((6-oxo-5-(trifluoromethyl)-1,6-dihydropyridazin-3-yl)methyl)amino)cyclobutane-1-carbonyl)piperazin-1-yl)-5-(trifluoromethyl)nicotinonitrile] | 10 to 100
9 | O=C(C1CN(Cc2cc(C(F)(F)F)c(=O)[nH]n2)C1)N1CCN2c3ncc(C(F)(F)F)cc3OCC[C@H]2C1 [Embodiment 40, (S)-4-(trifluoromethyl)-6-((3-(3-(trifluoromethyl)-7,7a,8,9,10,11-hexahydro-6H-pyrazino[1,2-d]pyrido[3,2-b][1,4]oxazepine-9-carbonyl)azetidin-1-yl)methyl)pyridazin-3(2H)-one] | 10 to 100
10 | O=C(N1CCN(c2ncc(C(F)(F)F)cn2)CC1)C12CC(NCc3c[nH]c(=O)c(C(F)(F)F)c3)(C1)C2 [Embodiment 25] | 100 to 1000
11 | O=C([C@H]1CC[C@H](NCc2c[nH]c(=O)c(C(F)(F)F)c2)C1)N1C2CCC1CN(c1ncc(C(F)(F)F)cn1)C2 [Embodiment 1] | 1000 to 10000
12 | CC(C)(c1cc(C(F)(F)F)c(=O)[nH]n1)N1CC(C(=O)N2CCN(c3ncc(C(F)(F)F)cn3)CC2)C1 [Embodiment 49, 4-(trifluoromethyl)-6-(2-(3-(4-(5-(trifluoromethyl)pyrimidin-2-yl)piperazine-1-carbonyl)azetidin-1-yl)propan-2-yl)pyridazin-3(2H)-one] | 10 to 100
13 | O=C([C@H]1CCN(Cc2cc(C(F)(F)F)c(=O)[nH]n2)C1)N1C2CCC1CN(c1ncc(C(F)(F)F)cn1)C2 [Embodiment 11, 4-(trifluoromethyl)-6-(((3S)-3-(3-(5-(trifluoromethyl)pyrimidin-2-yl)-3,8-diazabicyclo[3.2.1]octane-8-carbonyl)pyrrolidin-1-yl)methyl)pyridazin-3(2H)-one] | 100 to 1000
14 | CN(Cc1cc(C(F)(F)F)c(=O)[nH]n1)[C@H]1C[C@H](C(=O)N2CCN(c3ncc(C(F)(F)F)cn3)CC2)C1 [Embodiment 34] | 10 to 100
15 | O=c1[nH]cc(CN[C@H]2C[C@H](C(=O)N3CCN(c4ccc(C(F)(F)F)cn4)CC3)C2)cc1C(F)(F)F [Embodiment 28] | 10 to 100
16 | COc1cc(C(F)(F)F)cnc1N1CCN(C(=O)[C@H]2C[C@H](NCc3cc(C(F)(F)F)c(=O)[nH]n3)C2)CC1 [Embodiment 45] | 10 to 100
17 | O=C(C1CC2(C1)CN(Cc1c[nH]c(=O)c(C(F)(F)F)c1)C2)N1CCN(c2ncc(C(F)(F)F)cn2)CC1 [Embodiment 21] | 1000 to 10000
18 | N#Cc1cc(C(F)(F)F)cnc1N1CCN(C(=O)[C@H]2C[C@H](NCc3cc(C(F)(F)F)c(=O)[nH]n3)C2)CC1 [Embodiment 47, 2-(4-((1R,3R)-3-(((6-oxo-5-(trifluoromethyl)-1,6-dihydropyridazin-3-yl)methyl)amino)cyclobutane-1-carbonyl)piperazin-1-yl)-5-(trifluoromethyl)nicotinonitrile] | 10 to 100
19 | O=C([C@@H]1CCN(Cc2cc(C(F)(F)F)c(=O)[nH]n2)C1)N1CCN(c2ncc(C(F)(F)F)cn2)CC1 [Embodiment 31] | 10 to 100

Row | Structure (SMILES) | IC50 [nM]
20 | O=C(c1ccc(NCc2c[nH]c(=O)c(C(F)(F)F)c2)cc1)N1C2CCC1CN(c1ncc(C(F)(F)F)cn1)C2 [Embodiment 7] | 100 to 1000
21 | O=C(C1CN(Cc2n[nH]c(=O)cc2OC2CCC2)C1)N1CCN(c2ncc(C(F)(F)F)cn2)CC1 [Embodiment 51, 5-cyclobutoxy-6-((3-(4-(5-(trifluoromethyl)pyrimidin-2-yl)piperazine-1-carbonyl)azetidin-1-yl)methyl)pyridazin-3(2H)-one] | 100 to 1000
22 | O=C(C1CN(Cc2cc(C(F)(F)F)c(=O)[nH]n2)C1)N1CCN2c3ncc(C(F)(F)F)cc3COC[C@@H]2C1 [Embodiment 44, (S)-4-(trifluoromethyl)-6-((3-(3-(trifluoromethyl)-7,7a,8,9,10,11-hexahydro-5H-pyrazino[2,1-c]pyrido[2,3-e][1,4]oxazepine-9-carbonyl)azetidin-1-yl)methyl)pyridazin-3(2H)-one] | 10 to 100
23 | O=c1[nH]cc(CN[C@H]2C[C@@H](C(=O)N3CCN(c4ncc(C(F)(F)F)cn4)CC3)C2)cc1C(F)(F)F [Embodiment 19] | 10 to 100
24 | O=C(C1CCN(Cc2c[nH]c(=O)c(C(F)(F)F)c2)CC1)N1CCN(c2ncc(C(F)(F)F)cn2)CC1 [Embodiment 18] | 100 to 1000
25 | O=C([C@H]1CCC[C@H](NCc2c[nH]c(=O)c(C(F)(F)F)c2)C1)N1CCN(c2ncc(C(F)(F)F)cn2)CC1 [Embodiment 16] | 1000 to 10000
26 | COc1nnc(CN(C)[C@H]2C[C@H](C(=O)N3CCN(c4ncc(C(F)(F)F)cn4)CC3)C2)cc1C(F)(F)F [Embodiment 33, ((1R,3R)-3-(((6-methoxy-5-(trifluoromethyl)pyridazin-3-yl)methyl)(methyl)amino)cyclobutyl)(4-(5-(trifluoromethyl)pyrimidin-2-yl)piperazin-1-yl)methanone] | 1000 to 10000
27 | O=C([C@H]1CCCN(Cc2c[nH]c(=O)c(C(F)(F)F)c2)C1)N1CCN(c2ncc(C(F)(F)F)cn2)CC1 [Embodiment 17] | 100 to 1000
28 | C[C@@H](CN1CC[C@@H](C(=O)N2C3CCC2CN(c2ncc(C(F)(F)F)cn2)C3)C1)Nc1cn[nH]c(=O)c1C(F)(F)F [Embodiment 2] | 10 to 100
29 | O=C([C@@H]1CCN(Cc2c[nH]c(=O)c(C(F)(F)F)c2)C1)N1C2CCC1CN(c1ncc(C(F)(F)F)cn1)C2 [Embodiment 10, 3-(trifluoromethyl)-5-(((3R)-3-(3-(5-(trifluoromethyl)pyrimidin-2-yl)-3,8-diazabicyclo[3.2.1]octane-8-carbonyl)pyrrolidin-1-yl)methyl)pyridin-2(1H)-one] | 10 to 100
30 | O=c1[nH]nc(CN[C@H]2C[C@H](C(=O)N3CCN4c5ncc(C(F)(F)F)cc5OCC[C@H]4C3)C2)cc1C(F)(F)F [Embodiment 41] | 10 to 100
31 | O=C(C1CN(Cc2c[nH]c(=O)c(C(F)(F)F)c2)C1)N1CCN(c2ccc(C(F)(F)F)cn2)CC1 [Embodiment 27] | 10 to 100
32 | Cc1cc2c(C(F)(F)F)cnc(N3CCN(C(=O)[C@H]4C[C@H](NC(C)(C)c5cc(C(F)(F)F)c(=O)[nH]n5)C4)CC3)c2[nH]1 [Embodiment 68, 6-(2-(((1R,3R)-3-(4-(2-methyl-4-(trifluoromethyl)-1H-pyrrolo[2,3-c]pyridin-7-yl)piperazine-1-carbonyl)cyclobutyl)amino)propan-2-yl)-4-(trifluoromethyl)pyridazin-3(2H)-one] | < 10
33 | O=C(C1CN(Cc2c[nH]c(=O)c(C(F)(F)F)c2)C1)N1CCN(c2cnc(C(F)(F)F)cn2)CC1 [Embodiment 29] | 10 to 100
34 | O=C([C@H]1CCN(Cc2c[nH]c(=O)c(C(F)(F)F)c2)C1)N1C2CCC1CN(c1ncc(C(F)(F)F)cn1)C2 [Embodiment 9, 3-(trifluoromethyl)-5-(((3S)-3-(3-(5-(trifluoromethyl)pyrimidin-2-yl)-3,8-diazabicyclo[3.2.1]octane-8-carbonyl)pyrrolidin-1-yl)methyl)pyridin-2(1H)-one] | 1000 to 10000
35 | COc1cc(N2CCN(C(=O)C3CN(Cc4cc(C(F)(F)F)c(=O)[nH]n4)C3)CC2)ncc1C(F)(F)F [Embodiment 57, 6-((3-(4-(4-methoxy-5-(trifluoromethyl)pyridin-2-yl)piperazine-1-carbonyl)azetidin-1-yl)methyl)-4-(trifluoromethyl)pyridazin-3(2H)-one] | < 10
36 | C[C@H]1CN(C(=O)[C@H]2C[C@H](NCc3c[nH]c(=O)c(C(F)(F)F)c3)C2)CCN1c1ncc(C(F)(F)F)cn1 [Embodiment 23] | < 10
37 | O=c1[nH]nc(CN[C@H]2C[C@H](C(=O)N3CCN(c4ncc(C(F)(F)F)cc4C4CC4)CC3)C2)cc1C(F)(F)F [Embodiment 56] | 10 to 100
38 | CC(C)(N[C@H]1C[C@H](C(=O)N2CCN(c3ncc(C(F)(F)F)cc3C(=O)N3CCCC3)CC2)C1)c1cc(C(F)(F)F)c(=O)[nH]n1 [Embodiment 66] | 10 to 100
